# Measured values published in patent US20250213596A1, “CANNABINOID-CONTAINING COMPOSITIONS” (BUZZELET DEVELOPMENT AND TECHNOLOGIES LTD., priority 2022, published 2025).
# Test: Flowability / transfer of the product from vessel to vessel
# Type: physicochemical
# Settings: as obtained, ambient temperature
# Source text: As used herein, the term “flowable” with regard to a composition is intended to mean that a majority of particles of the composition have the ability to move freely relative to an inner surface of a vessel in which they are contained.
# Purified THC at 99% purity (dronabinol) was used.
# A product comprising 66% silica and 33% THC was formed. It felt dry and was free flowing. It transferred fully from one vessel to another.
smiles,measurement,value
CCCCCc1cc(O)c2c(c1)OC(C)(C)[C@@H]1CCC(C)=C[C@@H]21 [dronabinol],flowability of the material (pourable / free flowing),could not be poured out of its container
